Results as given in US12569453B2, “Use of tapinarof for the treatment of atopic dermatitis” (Dermavant Sciences GmbH, priority 2018, dated 2026).
Marks after values point to notes of the source that are not given here.

Test system: adult subjects with psoriasis
Assay: Phase II/2b clinical study in plaque psoriasis: efficacy and patient-reported outcomes
Format: in vivo, human
Settings: for PGA response rate (primary endpoint): interim analysis; for subjects with ≥4 improvement in pruritus NRS score from baseline: baseline NRS score ≥4; for PGA response rate (PGA 0 or 1 and ≥2-grade improvement): mITT OC; for PASI50 response rate / PASI75 response rate / PASI90 response rate: Week 16; for PGA treatment success: Week 16 (4 weeks after end of treatment)
Text: This was a multicenter (United States, Canada, and Japan), randomized, double-blind (Sponsor-unblind), vehicle-controlled, 6-arm, parallel-group, dose-finding study in adult subjects with psoriasis. Certain study personnel at each site were unblinded to dose-frequency.
The study consisted of 3 periods: up to 4 weeks Screening, 12 weeks double-blind treatment, and 4 weeks post-treatment follow-up. Study visits occurred at Screening; Baseline; weeks 1, 2, 4, 8, and 12 during the treatment period; and 2 and 4 weeks after the last application of study treatment (i.e., at weeks 14 and 16). Additional visits could occur, as needed, for early withdrawals or to follow-up on any skin reactions or ongoing AEs. A subject's total duration of study participation was approximately 16 to 20 weeks.
Two concentrations of Tapinarof cream (0.5% and 1%) and a vehicle control were evaluated following application to all psoriasis lesions (except on the scalp) once (QD) or twice daily (BID) for 12 weeks. There were no planned dose adjustments during the study.
Efficacy was assessed by using a 5-point static Physician Global Assessment (PGA) (0-4 scale), the Psoriasis Area and Severity Index (PASI), % BSA involvement, target lesion assessments (erythema, scaling, and plaque thickness), and subject-reported itch/pruritus severity using a numeric rating scale (NRS) (from the Psoriasis Symptom Diary [PSD]). Additional subject-reported outcomes included the daily PSD (which also contained severity and bother items for 3 additional symptoms). Investigator global impression of change item (assessing change in severity of psoriasis symptoms) and 2 subject global impressions of change items (assessing change in severity of psoriasis symptoms and change in severity of itch/pruritus) were also assessed.
Physician Global Assessment: The PGA is a clinical tool for assessing the current state/severity of a subject's psoriasis. It is a static 5-point morphological assessment of overall disease severity, as determined by the investigator, using the clinical characteristics of erythema, plaque thickness, and scaling as guidelines. At each specified time point, the PGA is made without reference to previous scores. Variations of the PGA are frequently used in clinical studies because it is a simple assessment that is more similar to the assessments actually used in clinical practice. Scoring system ranges from 0 (=Clear) to 4 (=Severe).
Psoriasis Area and Severity Index: The PASI scoring system is a widely-used standard clinical tool for assessing the severity of psoriasis that takes into account the overall severity of erythema (redness), thickness (induration), and scale, as well as the extent of BSA affected with psoriasis. The 3 clinical signs are each graded on a 5 point scale (0 to 4) and the % BSA affected is scored on a 7-point scale (0 to 6) for each of the 4 specified body regions (head, upper extremities, trunk, and lower extremities). The individual scores are multiplied by a weighted factor for each body region; the sum of these scores gives the overall PASI score. Higher scores indicate more severe disease. PASI is a static assessment made without reference to previous scores.
Body Surface Area: The extent of BSA affected by psoriasis is a general indicator of disease severity and was measured throughout the study. The extent of BSA to which study treatment was applied was also recorded. For the purpose of approximate clinical estimation, the total palmar surface of the palm plus 5 digits was assumed to be approximately equivalent to 1% BSA.
Target Lesion Grading: A single target lesion was selected at Baseline to assess efficacy in treating a discrete area rather than an overall average of all areas. For that lesion, the severity of erythema, scaling, and plaque thickness was assessed by the investigator on a 5-point scale ranging from “0=none” to “4=severe”. […]

CC(C)c1c(O)cc(/C=C/c2ccccc2)cc1O [Tapinarof, 3,5-Dihydroxy-4-isopropyl-trans-stilbene]
Target lesion Erythema, percent change from Baseline (Mean) (1% BID, Early WD): −46.67%
Target lesion Plaque thickness, percent change from Baseline (Mean) (1% BID, Early WD): −46.67%
Target lesion Scaling, percent change from Baseline (Mean) (1% BID, Early WD): −52.50%
PGA response at Week 12 (1% BID, Fitzpatrick skin type I/II): 60%
PGA response at Week 12 (1% BID, Fitzpatrick skin type III/IV): 54%
PGA response at Week 12 (1% BID, Fitzpatrick skin type V/VI): 100%
Target lesion Erythema, percent change from Baseline (Mean) (1% BID, Follow-up Week 14): −65.42%
Target lesion Plaque thickness, percent change from Baseline (Mean) (1% BID, Follow-up Week 14): −67.50%
Target lesion Scaling, percent change from Baseline (Mean) (1% BID, Follow-up Week 14): −67.50%
Target lesion Erythema, percent change from Baseline (Mean) (1% BID, Follow-up/Week 16): −78.33%
Target lesion Plaque thickness, percent change from Baseline (Mean) (1% BID, Follow-up/Week 16): −76.67%
Target lesion Scaling, percent change from Baseline (Mean) (1% BID, Follow-up/Week 16): −77.50%
Target lesion Erythema, percent change from Baseline (Mean) (1% BID, Week 1): −12.50%
Target lesion Plaque thickness, percent change from Baseline (Mean) (1% BID, Week 1): −18.75%
Target lesion Scaling, percent change from Baseline (Mean) (1% BID, Week 1): −25.00%
Target lesion Erythema, percent change from Baseline (Mean) (1% BID, Week 2): −25.52%
Target lesion Plaque thickness, percent change from Baseline (Mean) (1% BID, Week 2): −33.33%
Target lesion Scaling, percent change from Baseline (Mean) (1% BID, Week 2): −32.55%
Target lesion Erythema, percent change from Baseline (Mean) (1% BID, Week 4): −44.94%
Target lesion Plaque thickness, percent change from Baseline (Mean) (1% BID, Week 4): −48.51%
Target lesion Scaling, percent change from Baseline (Mean) (1% BID, Week 4): −55.65%
Target lesion Erythema, percent change from Baseline (Mean) (1% BID, Week 8): −62.50%
Target lesion Plaque thickness, percent change from Baseline (Mean) (1% BID, Week 8): −62.82%
Target lesion Scaling, percent change from Baseline (Mean) (1% BID, Week 8): −70.51%
PGA response rate (primary endpoint) (1% BID, Week 8): 42%
Mean change in nine items of the PSD from baseline (1% BID, Week 12): −4.5^‡
Mean change in total target lesion grading scores from baseline (1% BID, Week 12): −6.9*
Target lesion Erythema, percent change from Baseline (Mean) (1% BID, Week 12): −77.65%
Target lesion Plaque thickness, percent change from Baseline (Mean) (1% BID, Week 12): −81.82%
Target lesion Scaling, percent change from Baseline (Mean) (1% BID, Week 12): −78.79%
absolute mean change in percent BSA affected from baseline (1% BID, Week 12): 4.9
decrease in total target lesion grading scores (mean change) (1% BID, Week 12): 6.9
subjects with ≥4 improvement in pruritus NRS score from baseline (1% BID, Week 12): 55%
PGA response rate (PGA 0 or 1 and ≥2-grade improvement) (1% BID, Week 12): 65%
PASI50 response rate (1% BID): 83%
PASI75 response rate (1% BID): 63%
PASI90 response rate (1% BID): 38%
PGA treatment success (1% BID): 58%
subjects with severity of pruritus symptoms rated very/moderately improved (1% BID, baseline to Week 12): 70%
PGA response at Week 12 (1% BID, psoriasis duration 5 years to <10 years): 67%
PGA response at Week 12 (1% BID, psoriasis duration 6 months to <5 years): 50%
PGA response at Week 12 (1% BID, psoriasis duration ≥10 years): 73%
PGA response at Week 12 (1% BID, ≥10% BSA affected at baseline): 64%
PASI75 responders who maintained response from Week 12 to Week 16 (1% QD): 93%
PGA responders who maintained response from Week 12 to Week 16 (1% QD): 86%
difference in PGA response rate, active minus vehicle (1% QD-vehicle QD, Week 12): 51.0%
PGA response at Week 12 (1% QD, 1 to <10% BSA affected at baseline): 60%
Target lesion Erythema, percent change from Baseline (Mean) (1% QD, Early WD): −47.62%
Target lesion Plaque thickness, percent change from Baseline (Mean) (1% QD, Early WD): −60.71%
Target lesion Scaling, percent change from Baseline (Mean) (1% QD, Early WD): −57.14%
PGA response at Week 12 (1% QD, Fitzpatrick skin type I/II): 67%
PGA response at Week 12 (1% QD, Fitzpatrick skin type III/IV): 47%
PGA response at Week 12 (1% QD, Fitzpatrick skin type V/VI): 75%
Target lesion Erythema, percent change from Baseline (Mean) (1% QD, Follow-up Week 14): −70.65%
Target lesion Plaque thickness, percent change from Baseline (Mean) (1% QD, Follow-up Week 14): −70.29%
Target lesion Scaling, percent change from Baseline (Mean) (1% QD, Follow-up Week 14): −67.39%
Target lesion Erythema, percent change from Baseline (Mean) (1% QD, Follow-up/Week 16): −74.24%
Target lesion Plaque thickness, percent change from Baseline (Mean) (1% QD, Follow-up/Week 16): −65.91%
Target lesion Scaling, percent change from Baseline (Mean) (1% QD, Follow-up/Week 16): −71.59%
Target lesion Erythema, percent change from Baseline (Mean) (1% QD, Week 1): −17.14%
Target lesion Plaque thickness, percent change from Baseline (Mean) (1% QD, Week 1): −13.10%
Target lesion Scaling, percent change from Baseline (Mean) (1% QD, Week 1): −24.29%
Target lesion Erythema, percent change from Baseline (Mean) (1% QD, Week 2): −35.68%
Target lesion Plaque thickness, percent change from Baseline (Mean) (1% QD, Week 2): −30.47%
Target lesion Scaling, percent change from Baseline (Mean) (1% QD, Week 2): −32.81%
Target lesion Erythema, percent change from Baseline (Mean) (1% QD, Week 4): −51.88%
Target lesion Plaque thickness, percent change from Baseline (Mean) (1% QD, Week 4): −47.04%
Target lesion Scaling, percent change from Baseline (Mean) (1% QD, Week 4): −53.49%
Target lesion Erythema, percent change from Baseline (Mean) (1% QD, Week 8): −65.06%
Target lesion Plaque thickness, percent change from Baseline (Mean) (1% QD, Week 8): −60.90%
Target lesion Scaling, percent change from Baseline (Mean) (1% QD, Week 8): −71.79%
PGA response rate (primary endpoint) (1% QD, Week 8): 32%
Mean change in nine items of the PSD from baseline (1% QD, Week 12): −4.0^†
Mean change in total target lesion grading scores from baseline (1% QD, Week 12): −7.0*
Target lesion Erythema, percent change from Baseline (Mean) (1% QD, Week 12): −81.88%
Target lesion Plaque thickness, percent change from Baseline (Mean) (1% QD, Week 12): −70.29%
Target lesion Scaling, percent change from Baseline (Mean) (1% QD, Week 12): −83.33%
absolute mean change in percent BSA affected from baseline (1% QD, Week 12): 4.3
decrease in total target lesion grading scores (mean change) (1% QD, Week 12): 7.0
subjects with ≥4 improvement in pruritus NRS score from baseline (1% QD, Week 12): 73%
PGA response rate (PGA 0 or 1 and ≥2-grade improvement) (1% QD, Week 12): 56%
PASI50 response rate (1% QD): 77%
PASI75 response rate (1% QD): 58%
PASI90 response rate (1% QD): 42%
PGA treatment success (1% QD): 54%
PGA response at Week 12 (1% QD, psoriasis duration 5 years to <10 years): 50%
PGA response at Week 12 (1% QD, psoriasis duration 6 months to <5 years): 80%
PGA response at Week 12 (1% QD, psoriasis duration ≥10 years): 50%
PGA response at Week 12 (1% QD, ≥10% BSA affected at baseline): 40%
subjects rating itch symptoms very improved or moderately improved (1% and 0.5% concentration groups, Week 12): 70-77%
subjects rated by investigators as very improved or moderately improved (1% concentration groups, Week 12): > 80%
subjects rating pruritus symptoms very improved or moderately improved (1% groups, Week 12): 70-76%
